In patent publication US20250304608A1, “PHOSPHORUS COMPOUND AND USE THEREOF” (SHANGHAI SHIJIANG BIOTECHNOLOGY CO., LTD., priority 2022, published 2025):
Where two headings read alike, the source gives them in different places.

Key:
mPTP-active Daoy cell = assay: CellTiter-Glo cell viability inhibition, mPTP-active Daoy cell; assay type: cell-based; details: Homo sapiens
mPTP-inactive Daoy cell = assay: CellTiter-Glo cell viability inhibition, mPTP-inactive Daoy cell; assay type: cell-based; details: Homo sapiens, Daoy cell transfected with PPIF shRNA vector
Con-NCI-H82 cell = assay: CellTiter-Glo cell viability inhibition, Con-NCI-H82 cell; assay type: cell-based; details: Homo sapiens, NCI-H82 cell transfected with empty virus vector
Text: (§1) The expression of NNMT protein in NCI-H82 cell was overexpressed by inserting the NNMT gene into NCI-H82 cell using a viral vector, and the NNMT protein-overexpressing NCI-H82 cell (ov-NNMT NCI-H82 cell) was obtained. The control NCI-H82 cell (Con-NCI-H82 cell) was obtained by transfecting NCI-H82 cell with empty virus vector without carrying NNMT gene. The expressing content of NNMT protein in the Con-NCI-H82 cell and ov-NNMT NCI-H82 cell was detected using Western Blot assay (as shown in FIG. 3), it could be seen from FIG. 3 that the NNMT protein was overexpressed in the ov-NNMT NCI-H82 cell compared with the expression level of NNMT protein in the Con-NCI-H82 cell.

ov-NNMT NCI-H82 cell = assay: CellTiter-Glo cell viability inhibition, ov-NNMT NCI-H82 cell; assay type: cell-based; details: Homo sapiens, NCI-H82 cell overexpressing NNMT protein
Text: as §1

Daoy cell = assay: TMRM mitochondria membrane potential in Daoy cell after CsA / H2O2 treatment; assay type: cell-based, human; details: untreated = 100
Text: The mitochondria permeability transition pore (mPTP) was a non-specific channel on the inner membrane of mitochondria, which could allow small molecules with molecular less than 1.5KD to pass freely, and its activity was affected by peroxides (such as H2O2), pH and calcium ions in mitochondria. […] For cells with active mitochondria permeability transition pore, adding peroxide (such as H2O2) could increase the activity of mitochondria permeability transition pore, resulting in a decrease in mitochondna membrane potential.

[1] = tested on: Daoy cell transfected with empty virus vector without carrying shRNA; assay: TMRM mitochondria membrane potential in Daoy cell transfected with empty virus vector (Con shRNA); assay type: cell-based, human; details: H2O2 +, CsA −, untreated = 100
[2] = tested on: Daoy cell transfected with virus vector carrying shRNA that induces degradation of PPIF mRNA; assay: TMRM mitochondria membrane potential in Daoy cell transfected with PPIF shRNA; assay type: cell-based, human; details: H2O2 +, CsA −, untreated = 100
[3] = Daoy cell transfected with empty virus vector, CellTiter-Glo, read-out: mPTP-active Daoy cell (IC50)

Structure (SMILES)	IC50 (mPTP-active Daoy cell; [3]) [µM]	IC50 (mPTP-inactive Daoy cell) [µM]	IC50 (Con-NCI-H82 cell) [µM]	IC50 (ov-NNMT NCI-H82 cell) [µM]	Relative TMRM signal intensity (%) in Daoy cell, mean value (Daoy cell) [%]	Relative TMRM signal intensity (%), mean value [1] [%]	Relative TMRM signal intensity (%), mean value [2] [%]	IC50 (mPTP-active Daoy cell; Daoy, read-out: mPTP-active Daoy cell (IC50, μM)) [µM]
COc1ccc([P+](c2ccc(OC)cc2)(c2ccc(OC)cc2)c2cccc3c2ccn3C)cc1 [AB36411]	0.52	0.68	0.17	0.16	–	–	–	–
COc1ccc([P+](c2ccc(OC)cc2)(c2cccc3c2ccn3C)c2cccc3c2ccn3C)cc1 [AB36420]	1.09	0.19	0.14	0.98	–	–	–	–
COc1ccc([P+](c2ccc(OC)cc2)(c2cccc3c2ccn3C)c2cccc3c2cnn3C)cc1 [AB36438]	1.03	0.24	0.32	1.53	–	–	–	–
COc1ccc([P+](c2ccc(OC)cc2)(c2cccc3c2cnn3C)c2cccc3c2cnn3C)cc1 [AB36439]	4.36	1.29	3.07	7.83	–	–	–	–
COc1ccc([P+](c2ccc(OC)cc2)(c2cccc3nn(C)cc23)c2cccc3c2ccn3C)cc1 [AB36444]	1.99	0.55	0.86	3.91	–	–	–	–
COc1ccc([P+](c2ccc(OC)cc2)(c2cccc3nn(C)cc23)c2cccc3c2cnn3C)cc1 [AB36445]	13.9	3.02	6.92	18.3	–	–	–	–
COc1ccc([P+](c2ccc(OC)cc2)(c2ccnc3c2ccn3C)c2ccnc3c2ccn3C)cc1 [AB36448]	7.24	2	4.23	11.3	–	–	–	–
COc1ccc([P+](c2ccc(OC)cc2)(c2ccnc3c2ccn3C)c2cccc3c2cnn3C)cc1 [AB36449]	2.16	0.57	1.49	5.91	–	–	–	–
COc1ccc([P+](c2ccc(OC)cc2)(c2cc3cc[nH]c3cn2)c2cccc3[nH]ccc23)cc1 [AB36453]	1.85	0.29	0.35	1.62	–	–	–	–
COc1ccc([P+](c2ccc(OC)cc2)(c2ccc3[nH]ccc3n2)c2cccc3c2ccn3CCN2CCOCC2)cc1 [AB36459]	1.56	0.32	0.48	2.09	–	–	–	–
COc1ccc([P+](c2ccc(OC)cc2)(c2cccc3nn(C)cc23)c2cccc3nn(C)cc23)cc1 [AB36471]	6.36	1.48	2.86	11	–	–	–	–
COc1ccc([P+](c2ccc(OC)cc2)(c2cccc3[nH]ccc23)c2cccc3[nH]ncc23)cc1 [AB36498]	6.65	1.32	1.01	3.43	–	–	–	–
c1ccc([P+](c2ccccc2)(c2ccccc2)c2cccc3[nH]cnc23)cc1 [AB36504]	25.3	5.12	3.38	10.7	–	–	–	–
c1ccc([P+](c2ccccc2)(c2ccccc2)c2cccc3cn[nH]c23)cc1 [AB36511]	13.4	4.03	3.32	9.74	–	–	–	–
COc1ccc([P+](c2ccccc2)(c2ccccc2)c2cccc3[nH]ccc23)cc1 [AB36513]	1.96	0.38	0.11	0.86	–	–	–	–
c1ccc([P+](c2ccccc2)(c2cccc3[nH]ccc23)c2cccc3cn[nH]c23)cc1 [AB36514]	10.2	1.19	0.26	1.35	–	–	–	–

Structure (SMILES)	IC50 (mPTP-active Daoy cell; [3]) [µM]	IC50 (mPTP-inactive Daoy cell) [µM]	IC50 (Con-NCI-H82 cell) [µM]	IC50 (ov-NNMT NCI-H82 cell) [µM]	Relative TMRM signal intensity (%) in Daoy cell, mean value (Daoy cell) [%]	Relative TMRM signal intensity (%), mean value [1] [%]	Relative TMRM signal intensity (%), mean value [2] [%]	IC50 (mPTP-active Daoy cell; Daoy, read-out: mPTP-active Daoy cell (IC50, μM)) [µM]
COc1ccc([P+](c2ccc(OC)cc2)(c2cccc3[nH]ncc23)c2cccc3[nH]ncc23)cc1 [AB36516]	33.1	9.58	6.47	17.9	–	–	–	–
c1ccc([P+](c2ccccc2)(c2ccccc2)c2cccc3occc23)cc1 [AB36521]	2.45	0.75	0.47	1.92	–	–	–	–
c1ccc([P+](c2ccccc2)(c2ccccc2)c2ccoc2)cc1 [AB36533]	11.9	3.52	3.09	8.97	–	–	–	–
c1ccc([P+](c2ccccc2)(c2ccccc2)c2cccc3scnc23)cc1 [AB36534]	3.66	1.21	1.35	5.11	–	–	–	–
c1ccc([P+](c2ccccc2)(c2ccccc2)c2cccc3sccc23)cc1 [AB36535]	1.56	0.37	0.46	2.32	–	–	–	–
c1ccc([P+](c2ccccc2)(c2ccccc2)c2cccc3ccoc23)cc1 [AB36536]	1.39	0.31	0.56	1.89	–	–	–	–
c1ccc([P+](c2ccccc2)(c2ccccc2)c2cscn2)cc1 [AB36537]	14.4	3.55	3.97	8.16	–	–	–	–
Brc1c(C[P+](c2ccccc2)(c2ccccc2)c2ccccc2)[nH]c2ccccc12 [AB36542]	8.37	3.68	3.25	9.22	–	–	–	–
C1=C([P+](c2ccccc2)(c2ccccc2)c2ccccc2)CCOC1 [AB36546]	35.1	7.28	4.72	10.5	–	–	–	–
OO [Compound H2O2, H2O2]	–	–	–	–	82	79	95	–
C(=C\C[P+](c1ccccc1)(c1ccccc1)c1ccccc1)/C[P+](c1ccccc1)(c1ccccc1)c1ccccc1 [SJ00001]	3.71	3.44	0.68	0.79	–	–	–	–
c1ccc(P(=[N+]=P(c2ccccc2)(c2ccccc2)c2ccccc2)(c2ccccc2)c2ccccc2)cc1 [SJ00002]	0.44	0.46	0.18	0.21	–	–	–	–
c1ccc([P+](CC[P+](c2ccccc2)(c2ccccc2)c2ccccc2)(c2ccccc2)c2ccccc2)cc1 [SJ00003]	4.91	5.18	3.24	2.98	–	–	–	–
[C-]#[N+]N=P(c1ccccc1)(c1ccccc1)c1ccccc1 [SJ00004]	9.01	7.99	5.51	5.32	–	–	–	–
CCCCCCCCCCCC[P+](c1ccccc1)(c1ccccc1)c1ccccc1 [SJ00005]	–	0.33	0.19	0.17	–	–	–	0.32
CCCCCCCCCCCCCC[P+](c1ccccc1)(c1ccccc1)c1ccccc1 [SJ00006]	0.29	0.34	0.13	0.14	–	–	–	–
